Entries after “also recorded” stand apart in the source; their conditions may differ. Like-named read-outs stand apart in the source and are kept apart here.
Assays:
[1] = at doses causing nearly complete inhibition of MAO-B; Elsworth et al.; cited from earlier work
Parkinson's patients = details: with L-Dopa (and decarboxylase inhibitor); cited from earlier work
[2] = system: blood pressure response to tyramine; test: Tyramine Potentiation in Vivo (blood pressure response to tyramine); design: species or system rat; details: for Potentiation of blood pressure response to tyramine: compound 5 mg/kg orally, tyramine 20 mg/kg orally, ratio of areas under the curve of blood pressure
Protocol: On the previous day a tail artery cannulation was performed to enable direct blood pressure measurements. On the experimental day the cannulae were connected to pressure transducers. The animals were unrestrained and were kept in a glass sided open top tank during the pressure measurements. […] The desired compound was administered 30 minutes after the last dose of tyramine. Tyramine was administered again, in increasing doses, as described above, one hour after the desired compound was administered. […] The tyramine potentiating effect was calculated as a ratio between the areas under the curve of blood pressure measured with tyramine alone (20 mg/kg) and that measured after administration of the desired compounds and tyramine.

MAO-A [3] = target: T1, MAO-A (Rattus norvegicus, UniProt P21396); test: biochemical; details: rat brain homogenate; 20 min preincubation at 37° C.; 5-HT 1 mM; read-out: IC50 for Inhibition of MAO-A in Brain Homogenates
T1 sequence (P21396 1-526): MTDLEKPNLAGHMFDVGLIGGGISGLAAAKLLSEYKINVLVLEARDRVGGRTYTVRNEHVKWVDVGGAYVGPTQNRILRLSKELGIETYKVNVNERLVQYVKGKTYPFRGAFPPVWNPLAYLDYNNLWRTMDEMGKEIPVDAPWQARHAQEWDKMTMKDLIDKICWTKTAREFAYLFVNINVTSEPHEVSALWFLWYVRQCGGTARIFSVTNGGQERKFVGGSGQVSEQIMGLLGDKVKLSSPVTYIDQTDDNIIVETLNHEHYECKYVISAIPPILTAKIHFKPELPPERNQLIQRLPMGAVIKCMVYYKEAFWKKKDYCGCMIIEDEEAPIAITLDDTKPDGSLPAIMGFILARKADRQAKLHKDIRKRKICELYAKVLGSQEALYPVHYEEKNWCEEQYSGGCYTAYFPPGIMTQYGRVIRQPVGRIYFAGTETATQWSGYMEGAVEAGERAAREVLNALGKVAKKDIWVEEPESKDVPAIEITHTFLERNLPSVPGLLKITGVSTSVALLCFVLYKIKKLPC

MAO-B [4] = test: Inhibition of MAO Activity Ex-vivo: Acute Treatment, brain, MAO-B; assay type: in vivo, rat (male Sprague-Dawley derived); details: for ED-50 BRAIN MAO-B: rat, ip or po, 2 hours after dosing; for BRAIN MAO-A/MAO-B (measure of selectivity): ratio of ED-50 values, rat brain, ex vivo
MAO-B [5] = target: T2, MAO-B (Rattus norvegicus, UniProt P19643); test: biochemical; assay type: biochemical; details: for IC50: 20 min preincubation at 37° C., PEA 20 μM, read-out: IC50 for Inhibition of MAO-B in Brain Homogenates
T2 sequence (P19643 1-520): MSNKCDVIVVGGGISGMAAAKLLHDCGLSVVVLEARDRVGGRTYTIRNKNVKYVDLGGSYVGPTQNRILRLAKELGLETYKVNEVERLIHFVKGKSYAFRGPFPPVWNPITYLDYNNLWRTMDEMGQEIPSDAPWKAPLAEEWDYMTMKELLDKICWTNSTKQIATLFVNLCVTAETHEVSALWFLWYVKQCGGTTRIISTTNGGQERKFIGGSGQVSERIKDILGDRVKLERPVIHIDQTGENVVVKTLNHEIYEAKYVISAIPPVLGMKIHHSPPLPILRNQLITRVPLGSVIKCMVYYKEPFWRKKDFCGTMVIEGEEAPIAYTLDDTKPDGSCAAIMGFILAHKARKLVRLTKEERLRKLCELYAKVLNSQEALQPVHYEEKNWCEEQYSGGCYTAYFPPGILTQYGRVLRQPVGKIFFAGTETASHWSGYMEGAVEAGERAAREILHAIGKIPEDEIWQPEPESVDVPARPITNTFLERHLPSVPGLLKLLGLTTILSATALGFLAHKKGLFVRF

MAO-B [6] = test: Inhibition of MAO Activity Ex-vivo: Acute Treatment, liver, MAO-B; assay type: in vivo, rat (male Sprague-Dawley derived); details: for ED-50 LIVER MAO-B: rat, ip or po, 2 hours after dosing; for LIVER MAO-A/MAO-B (measure of selectivity): ratio of ED-50 values, rat liver, ex vivo
Protocol: (§1) These experiments were performed essentially according to the protocol of K. F. Tipton and M. B. H. Youdim in CIBA Symposium No. 39, Editors: G. E. W. Wolstenholme and J. Knight, Elsevier, Amsterdam, 1976, pp. 393-403. The MAO enzyme source was a homogenate of rat brain in 0.3M sucrose which was centrifuged at 600 g for 15 minutes. The supernatant was diluted appropriately in 0.05M phosphate buffer and preincubated with serial dilutions of compounds of interest which are listed below for 20 minutes at 37° C. ^14 C-labeled substrates (2-phenylethylamine, hereinafter PEA; 5-hydroxytryptamine, hereinafter 5-HT) were then added and the incubation continued for a further 20 minutes (PEA) or 30-45 minutes (5-HT). Substrate concentrations used were 20 μM (PEA) or 1 mM (5-HT). In the case of PEA the enzyme concentration was chosen so that not more than 10% of the substrate was metabolized during the course of the reaction. The reaction was then stopped by the addition of tranylcypromine (to final concentration of 1 mM) and the incubate filtered over a small column of Amberlite CG-50; buffered to pH 6.3. The column was washed with 1.5 ml water, the eluates pooled and the radioactive content determined by liquid scintillation spectrometry. Since the amine substrates are totally retained on the column, radioactivity in the eluate indicates the production of neutral and acidic metabolites formed as a result of MAO activity. Activity of MAO in the sample was expressed as a percentage of control activity in the absence of inhibitors after subtraction of appropriate blank values. The activity determined using PEA as a substrate is referred to as MAO B activity, and that determined using 5-HT as a substrate is referred to as MAO A activity.
(§2) Rats (male Sprague-Dawley derived) weighing 250±20 g were treated with the desired compound by intraperitoneal injection (ip) or oral gavage (po) and decapitated 2 hours later. Groups of three rats were used for each dose level of the compound and MAO activity was determined in the brain and liver using the general technique described above. The amount of protein in each incubation was determined using the Folin-Lowry method, and enzyme activity was calculated as nmol substrate metabolized per hour incubation for each mg protein. Activity of MAO in tissues from animals treated with inhibitors was expressed as a percentage of the enzyme activity in a group of control animals which were administered the vehicle alone (water in the case of oral gavage, or 0.9% saline in the case of intraperitoneal injection) and killed as above.

MAO-A [7] = test: Inhibition of MAO Activity Ex-vivo: Acute Treatment, brain, MAO-A; assay type: in vivo, rat (male Sprague-Dawley derived); details: rat, ip or po, 2 hours after dosing
MAO-A [8] = test: Inhibition of MAO Activity Ex-vivo: Acute Treatment, liver, MAO-A; assay type: in vivo, rat (male Sprague-Dawley derived); details: rat, ip or po, 2 hours after dosing
Protocol: as §1, §2

[9] = ratio IC50 MAO-A / IC50 MAO-B, rat brain homogenate

SMILES	IC50 (MAO-A [3])	ED-50 BRAIN MAO-B (MAO-B [4])	BRAIN MAO-A/MAO-B (measure of selectivity) (MAO-B [4])	IC50 (MAO-B [5]; rat brain homogenate)	Selectivity MAO-A/MAO-B (in vitro IC50) (MAO-B [5]; [9])	ED-50 LIVER MAO-B (MAO-B [6])	LIVER MAO-A/MAO-B (measure of selectivity) (MAO-B [6])	ED-50 BRAIN MAO-A (MAO-A [7])	ED-50 LIVER MAO-A (MAO-A [8])	further results
C#CCN(C)[C@H](C)Cc1ccccc1 [(-)-deprenyl]	–	–	–	–	–	–	–	–	–	"cheese effect" of (-)-deprenyl (in words) [1]: not causing the "cheese effect"; clinical effect on addition to L-Dopa treatment (in words) (Parkinson's patients): improvements in akinesia and overall functional capacity as well as the elimination of "on-off" type fluctuations; also recorded: enhances and prolongs the effect of L-Dopa
NCCc1ccc(O)cc1 [Tyramine, reference compound]	–	–	–	–	–	–	–	–	–	effect of tyramine alone on blood pressure (in words) ([2]; tyramine alone, oral, 5, 10 and 20 mg/kg): caused increase of blood pressure
C#CCNC1CCc2c(F)cccc21.Cl (single isomer, unassigned; (+)) [(+)-4-F, (+)-4-Fluoro-N-propargyl-1-aminoindan hydrochloride]	0.34 µM	0.33 mg/kg	> 3	0.0052 µM	65	0.17 mg/kg	> 5.9	> 1.0 mg/kg	> 1.0 mg/kg	Potentiation of blood pressure response to tyramine [2]: 1.55 fold
C#CCNC1CCc2ccccc21 (centres unmarked) [H, N-propargyl-1-aminoindan, reference compound]	–	0.07 mg/kg	–	–	–	0.06 mg/kg	–	1.2 mg/kg	5 mg/kg	–
C#CCNC1CCc2cc(F)ccc21.Cl (single isomer, unassigned; (+)) [(+)-5-F, (+)-5-Fluoro-N-propargyl-1-aminoindan hydrochloride]	0.14 µM	0.07 mg/kg	> 1.4	0.0057 µM	24	0.07 mg/kg	> 1.4	> 0.1 mg/kg	> 0.1 mg/kg	Potentiation of blood pressure response to tyramine [2]: 2.25 fold
C#CCNC1CCc2cc(F)ccc21.Cl (centres unmarked) [Example 5-F, 5-Fluoro-N-propargyl-1-aminoindan hydrochloride]	0.7 µM	0.4 mg/kg	6	0.006 µM	116	0.06 mg/kg	36.7	2.3 mg/kg	2.2 mg/kg	–
C#CCNC1CCc2c(F)cc(F)cc21 (single isomer, unassigned; (+)) [(+)-4,6-Difluoro]	0.8 µM	3.7 mg/kg	1	0.5 µM	2	–	–	2.9 mg/kg	–	–
C#CCNC1CCc2ccc(Cl)cc21.Cl (centres unmarked) [Example 6-Cl, 6-Chloro-N-propargyl-1-aminoindan hydrochloride]	6.9 µM	1.7 mg/kg	5.8	0.0077 µM	896	–	–	10 mg/kg	–	–
C#CCNC1CCc2ccc(F)cc21.Cl (single isomer, unassigned; (-)) [(-)-6-F, (-)-6-Fluoro-N-propargyl-1-aminoindan hydrochloride]	40 µM	–	–	12 µM	–	–	–	–	–	ED-50 BRAIN MAO-B (MAO-B [4]; hydrochloride, 120 min): 0.45 mg/kg; BRAIN MAO-A/MAO-B (measure of selectivity) (MAO-B [4]; hydrochloride): 51; Selectivity MAO-A/MAO-B (in vitro IC50) (MAO-B [5]; ratio IC50 MAO-A / IC50 MAO-B, rat brain homogenate, hydrochloride): 3; ED-50 LIVER MAO-B (MAO-B [6]; hydrochloride, 120 min): < 0.5 mg/kg; ED-50 BRAIN MAO-A (MAO-A [7]; hydrochloride, 120 min): 23 mg/kg
C#CCNC1CCc2ccc(F)cc21.Cl (single isomer, unassigned; (+)) [(+)-6-F, (+)-6-Fluoro-N-propargyl-1-aminoindan hydrochloride]	2.8 µM	–	–	0.00022 µM	–	–	40	–	5.2 mg/kg	Potentiation of blood pressure response to tyramine [2]: 1.2 fold; tyramine potentiating effect (in words) ([2]; rat, 5 mg/kg oral, listed as (+)-6-F-N-propargyl-1-aminoindan, hydrochloride, 5 mg/kg): lowest potentiating effect as compared to the (+)-5-F and (+)-4-F derivatives; also recorded: does not cause significant potentiation of tyramine; also recorded: a dose 35 times higher results practically in no tyramine potentiation; ED-50 BRAIN MAO-B (MAO-B [4]; hydrochloride, 120 min): 0.14 mg/kg; ED-50 BRAIN MAO-B (MAO-B [4]; listed as (+)-6-F-N-propargyl-1-aminoindan, hydrochloride, 120 min): 0.14 mg/kg; BRAIN MAO-A/MAO-B (measure of selectivity) (MAO-B [4]; hydrochloride): 152; Selectivity MAO-A/MAO-B (in vitro IC50) (MAO-B [5]): 1244; MAO-B selectivity in vitro (in words) (MAO-B [5]; in vitro): much more selective than the parent non-fluorinated compound and more selective than the other fluorinated derivatives; ED-50 LIVER MAO-B (MAO-B [6]; hydrochloride, 120 min): 0.13 mg/kg; ED-50 BRAIN MAO-A (MAO-A [7]; hydrochloride, 120 min): 21.3 mg/kg
C#CCNC1CCc2ccc(F)cc21 (centres unmarked) [Example 6-F, 6-Fluoro-1-propargylaminoindan]	4 µM	0.13 mg/kg	170	0.0062 µM	645	–	–	22 mg/kg	–	–
C#CCNC1CCc2c(F)cccc21.Cl (centres unmarked) [Example 4-F, 4-Fluoro-N-propargyl-1-aminoindan hydrochloride]	0.5 µM	0.22 mg/kg	6	0.0058 µM	86	0.13 mg/kg	18.5	1.4 mg/kg	2.4 mg/kg	–

Source: patent publication US5486541A (Teva Pharmaceutical Industries, Ltd., priority 1991, dated 1996)
